PubChem BioAssay (NCI)
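Following 48 hours of exposure in 96-well plates, responses at five concentrations were used to interpolate endpoints linearly. GI50 is the concentration that inhibits growth by half. At the TGI there is no net growth.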

What was measured:
Assay in all cases: NCI anticancer screen, dose series, 48 h
[1] = test system: UO-31 renal
[2] = test system: A498 renal
[3] = test system: PC-3 prostate
[4] = test system: U251 CNS
[5] = test system: SN12C renal
[6] = test system: NCI-H460 lung
[7] = test system: HS 578T breast
[8] = test system: SNB-75 CNS
[9] = test system: SF-268 CNS
[10] = test system: SK-OV-3 ovarian
[11] = test system: OVCAR-8 ovarian
[12] = test system: UACC-62 melanoma
[13] = test system: NCI/ADR-RES ovarian
[14] = test system: K-562 leukemia
[15] = test system: OVCAR-5 ovarian
[16] = test system: HCT-15 colon
[17] = test system: HCC-2998 colon
[18] = test system: EKVX NSCLC
[19] = test system: BT-549 breast
[20] = test system: SNB-19 CNS
[21] = test system: RXF 393 renal
[22] = test system: TK-10 renal
[23] = test system: LOX IMVI melanoma
[24] = test system: IGROV1 ovarian
[25] = test system: SW-620 colon
[26] = test system: HT29 colon
[27] = test system: CCRF-CEM leukemia
[28] = test system: NCI-H23 lung
[29] = test system: ACHN renal
[30] = test system: MCF7 breast
[31] = test system: SK-MEL-5 melanoma
[32] = test system: SK-MEL-28 melanoma
[33] = test system: MOLT-4 leukemia
[34] = test system: KM12 colon
[35] = test system: HCT-116 colon
[36] = test system: SF-539 CNS
[37] = test system: UACC-257 melanoma
[38] = test system: NCI-H226 lung
[39] = test system: HOP-92 NSCLC
[40] = test system: OVCAR-3 ovarian
[41] = test system: SK-MEL-2 melanoma
[42] = test system: RPMI-8226 leukemia
[43] = test system: SF-295 CNS
[44] = test system: T-47D breast
[45] = test system: M14 melanoma
[46] = test system: 786-0 renal
[47] = test system: HOP-62 NSCLC
[48] = test system: A549 NSCLC
[49] = test system: OVCAR-4 ovarian
[50] = test system: MDA-MB-231 breast
[51] = test system: CAKI-1 renal
[52] = test system: NCI-H522 lung
[53] = test system: DU-145 prostate
[54] = test system: COLO 205 colon
[55] = test system: MALME-3M melanoma
[56] = test system: MDA-MB-435
[57] = test system: HL-60(TB) leukemia
[58] = test system: SR leukemia

## Clc1ccc2sc(-n3ccc4ccccc43)nc2c1
[1]
  TGI: > 100 µM
[2]
  TGI: > 100 µM
[3]
  TGI: > 100 µM
[4]
  TGI: > 100 µM
[5]
  TGI: > 100 µM
[6]
  TGI: > 100 µM
[7]
  TGI: > 100 µM
[8]
  TGI: > 100 µM
[9]
  TGI: > 100 µM
[10]
  TGI: > 100 µM
[11]
  TGI: > 100 µM
[12]
  TGI: > 100 µM
[13]
  TGI: > 100 µM
[14]
  TGI: > 100 µM
[15]
  TGI: > 100 µM
[16]
  TGI: > 100 µM
[17]
  TGI: > 100 µM
[18]
  TGI: > 100 µM
[19]
  TGI: > 100 µM
[20]
  TGI: > 100 µM
[21]
  TGI: 69.3 µM
[22]
  TGI: > 100 µM
[23]
  TGI: > 100 µM
[24]
  TGI: > 100 µM
[25]
  TGI: > 100 µM
[26]
  TGI: > 100 µM
[27]
  TGI: > 100 µM
[28]
  TGI: > 100 µM
[29]
  TGI: > 100 µM
[30]
  TGI: > 100 µM
[31]
  TGI: > 100 µM
[32]
  TGI: > 100 µM
[33]
  TGI: > 100 µM

## CC/C=C\C[C@H](O)C/C=C1/C(=O)C=C[C@@H]1C/C=C\CCCC(=O)N(C)C
[34]
  GI50: 0.709 µM
  TGI: 4.03 µM
[1]
  GI50: 1.41 µM
  TGI: 2.93 µM
[2]
  GI50: 2.56 µM
  TGI: 4.46 µM
[3]
  GI50: 1.78 µM
  TGI: 4.47 µM
[35]
  GI50: 0.44 µM
  TGI: 1.68 µM
[36]
  GI50: 2.18 µM
  TGI: 7.14 µM
[4]
  GI50: 1.32 µM
  TGI: 3.91 µM
[5]
  GI50: 2.6 µM
  TGI: 10.9 µM
[37]
  GI50: 2.37 µM
  TGI: 7.31 µM
[6]
  GI50: 2.37 µM
  TGI: 7.4 µM
[38]
  GI50: 2.57 µM
  TGI: 7.84 µM
[7]
  GI50: 4.29 µM
  TGI: 27.6 µM
[8]
  GI50: 10.9 µM
  TGI: 33.4 µM
[9]
  GI50: 3.04 µM
  TGI: 13.9 µM
[39]
  GI50: 2.56 µM
  TGI: 7.12 µM
[10]
  GI50: 4.36 µM
  TGI: 15.6 µM
[11]
  GI50: 1.54 µM
  TGI: 11.4 µM
[12]
  GI50: 2.2 µM
  TGI: 5.12 µM
[40]
  GI50: 0.471 µM
  TGI: 1.79 µM
[13]
  GI50: 1.08 µM
  TGI: 7.9 µM
[14]
  GI50: 1.02 µM
  TGI: > 100 µM
[15]
  GI50: 2.46 µM
  TGI: 5.51 µM
[16]
  GI50: 1.29 µM
  TGI: 5.87 µM
[41]
  GI50: 2.5 µM
  TGI: 7.13 µM
[42]
  GI50: 0.671 µM
  TGI: 6.01 µM
[17]
  GI50: 1.77 µM
  TGI: 3.2 µM
[18]
  GI50: 3.92 µM
  TGI: 15.6 µM
[20]
  GI50: 3.19 µM
  TGI: 14.1 µM
[21]
  GI50: 1.73 µM
  TGI: 3.26 µM
[43]
  GI50: 2.97 µM
  TGI: 11.1 µM
[44]
  GI50: 2.57 µM
  TGI: 11.8 µM
[45]
  GI50: 2.79 µM
  TGI: 11 µM
[46]
  GI50: 0.504 µM
  TGI: 2.09 µM
[22]
  GI50: 2.61 µM
  TGI: 7.48 µM
[23]
  GI50: 0.356 µM
  TGI: 1.54 µM
[24]
  GI50: 3.3 µM
  TGI: 11.2 µM
[47]
  GI50: 1.99 µM
  TGI: 8.35 µM
[48]
  GI50: 3.01 µM
  TGI: 11.3 µM
[49]
  GI50: 2.07 µM
  TGI: 13.5 µM
[25]
  GI50: 0.851 µM
  TGI: 6.16 µM
[26]
  GI50: 0.853 µM
  TGI: 2.97 µM
[50]
  GI50: 3.12 µM
  TGI: 8.95 µM
[27]
  GI50: 0.817 µM
  TGI: 5.61 µM
[28]
  GI50: 2 µM
  TGI: 5.74 µM
[51]
  GI50: 1.22 µM
  TGI: 2.67 µM
[52]
  GI50: 1.33 µM
  TGI: 2.98 µM
[53]
  GI50: 3.27 µM
  TGI: 15.4 µM
[54]
  GI50: 1.45 µM
  TGI: 3.3 µM
[55]
  GI50: 3.05 µM
  TGI: 8.81 µM
[29]
  GI50: 1.45 µM
  TGI: 3.43 µM
[30]
  GI50: 0.368 µM
  TGI: 12.2 µM
[56]
  GI50: 0.862 µM
  TGI: 2.37 µM
[31]
  GI50: 1.6 µM
  TGI: 3 µM
[57]
  GI50: 2.27 µM
  TGI: 13.6 µM
[32]
  GI50: 1.96 µM
  TGI: 4.31 µM
[58]
  GI50: 0.376 µM
  TGI: 12.3 µM
[33]
  GI50: 2.78 µM
  TGI: 12.8 µM
